Earlier results as cited in patent US20130338178A1, “SIRTUIN MODULATORS AS INHIBITORS OF CYTOMEGALOVIRUS” (THE TRUSTEES OF PRINCETON UNIVERSITY, priority 2011, published 2013).

Experiments:
SIRT1 = molecular target: T1, SIRT1 (Homo sapiens, UniProt Q96EB6); settings: SIRT1 preincubated with NAD+ and compound, means ± SD, cited from earlier work
T1 sequence (Q96EB6 1-747): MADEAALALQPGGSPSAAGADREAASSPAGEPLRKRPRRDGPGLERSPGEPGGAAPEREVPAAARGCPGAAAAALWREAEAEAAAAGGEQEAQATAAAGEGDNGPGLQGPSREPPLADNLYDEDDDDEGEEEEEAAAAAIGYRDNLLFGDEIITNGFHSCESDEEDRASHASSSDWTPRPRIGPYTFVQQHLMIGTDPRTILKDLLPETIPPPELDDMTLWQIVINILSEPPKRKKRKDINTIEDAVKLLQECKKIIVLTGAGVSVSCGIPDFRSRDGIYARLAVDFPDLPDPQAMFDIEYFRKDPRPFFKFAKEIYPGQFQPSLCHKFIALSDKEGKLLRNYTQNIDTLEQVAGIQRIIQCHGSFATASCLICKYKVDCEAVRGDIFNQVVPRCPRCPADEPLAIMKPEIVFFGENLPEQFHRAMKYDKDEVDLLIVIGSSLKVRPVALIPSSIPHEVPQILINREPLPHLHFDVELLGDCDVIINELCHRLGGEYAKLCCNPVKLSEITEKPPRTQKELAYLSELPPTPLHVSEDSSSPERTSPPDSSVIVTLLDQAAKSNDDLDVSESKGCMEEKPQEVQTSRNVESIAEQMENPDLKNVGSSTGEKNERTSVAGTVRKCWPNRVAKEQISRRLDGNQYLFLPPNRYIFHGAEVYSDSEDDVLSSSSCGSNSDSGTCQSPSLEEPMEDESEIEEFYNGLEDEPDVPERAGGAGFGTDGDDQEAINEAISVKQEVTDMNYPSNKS

sirtuin = settings: cited from earlier work; for % Activity at 50 μM / % Activity at 500 μM: residual enzyme activity relative to control with no inhibitor; for IC50: analogs of compound 12

| Compound | inhibition at 300 μM (%) (SIRT1) | IC50 (SIRT1) | % Activity at 50 μM (sirtuin) | % Activity at 500 μM (sirtuin) | IC50 (sirtuin) |
| --- | --- | --- | --- | --- | --- |
| N#CCC(=O)NCCCC[C@H](NC(=O)OCc1ccccc1)C(=O)Nc1ccccc1 [2a] | 50 ± 7.9% |  |  |  |  |
| O=C(CC(F)(F)F)NCCCC[C@H](NC(=O)OCc1ccccc1)C(=O)Nc1ccccc1 [2b] | 44 ± 17% | > 300 µM |  |  |  |
| CSCC(=O)NCCCC[C@H](NC(=O)OCc1ccccc1)C(=O)Nc1ccccc1 [2c] | 32 ± 20% | > 300 µM |  |  |  |
| C[S+]([O-])CC(=O)NCCCC[C@H](NC(=O)OCc1ccccc1)C(=O)Nc1ccccc1 (some centres unmarked) [2d] | 46 ± 3.0% | > 300 µM |  |  |  |
| CS(=O)(=O)CC(=O)NCCCC[C@H](NC(=O)OCc1ccccc1)C(=O)Nc1ccccc1 [2e] | 56 ± 1.9% |  |  |  |  |
| O=C(Cc1ccccc1C(F)(F)F)NCCCC[C@H](NC(=O)OCc1ccccc1)C(=O)Nc1ccccc1 [2f] | 49 ± 13% | > 300 µM |  |  |  |
| O=C(Cc1ccc(C(F)(F)F)cc1)NCCCC[C@H](NC(=O)OCc1ccccc1)C(=O)Nc1ccccc1 [2g] | 41 ± 20% | > 300 µM |  |  |  |
| O=C(Cc1ccccc1[N+](=O)[O-])NCCCC[C@H](NC(=O)OCc1ccccc1)C(=O)Nc1ccccc1 [2h] | 40 ± 12% | > 300 µM |  |  |  |
| O=C(Cc1ccc([N+](=O)[O-])cc1)NCCCC[C@H](NC(=O)OCc1ccccc1)C(=O)Nc1ccccc1 [2i] | 51 ± 17% |  |  |  |  |
| COC(=O)CC(=O)NCCCC[C@H](NC(=O)OCc1ccccc1)C(=O)Nc1ccccc1 [2j] | 92 ± 1.2% | 35 ± 5.2 µM |  |  |  |
| CCOC(=O)CC(=O)NCCCC[C@H](NC(=O)OCc1ccccc1)C(=O)Nc1ccccc1 [2k] | 91 ± 1.3% | 3.9 ± 0.29 µM |  |  |  |
| CCCOC(=O)CC(=O)NCCCC[C@H](NC(=O)OCc1ccccc1)C(=O)Nc1ccccc1 [2l] | 71 ± 0.72% | 62 ± 3.7 µM |  |  |  |
| CC(C)OC(=O)CC(=O)NCCCC[C@H](NC(=O)OCc1ccccc1)C(=O)Nc1ccccc1 [2m] | 72 ± 5.1% | 47 ± 5.3 µM |  |  |  |
| CCCCOC(=O)CC(=O)NCCCC[C@H](NC(=O)OCc1ccccc1)C(=O)Nc1ccccc1 [2n] | 64 ± 6.1% | 73 ± 3.2 µM |  |  |  |
| CC(C)(C)OC(=O)CC(=O)NCCCC[C@H](NC(=O)OCc1ccccc1)C(=O)Nc1ccccc1 [2o] | 6.0 ± 0.64% | > 300 µM |  |  |  |
| O=C(CC(=O)OCC1CC1)NCCCC[C@H](NC(=O)OCc1ccccc1)C(=O)Nc1ccccc1 [2p] | 93 ± 1.2% | 14 ± 2.6 µM |  |  |  |
| O=C(CC(=O)OCC(F)(F)F)NCCCC[C@H](NC(=O)OCc1ccccc1)C(=O)Nc1ccccc1 [2q] | 94 ± 1.5% | 15 ± 3.1 µM |  |  |  |
| O=C(CC(=O)OCc1ccccc1)NCCCC[C@H](NC(=O)OCc1ccccc1)C(=O)Nc1ccccc1 [2r] | 71 ± 4.3% | 96 ± 4.8 µM |  |  |  |
| NC(=O)CC(=O)NCCCC[C@H](NC(=O)OCc1ccccc1)C(=O)Nc1ccccc1 [2s] | 25 ± 2.3% | > 300 µM |  |  |  |
| CNC(=O)CC(=O)NCCCC[C@H](NC(=O)OCc1ccccc1)C(=O)Nc1ccccc1 [2t] | 24 ± 2.5% | > 300 µM |  |  |  |
| CN(C)C(=O)CC(=O)NCCCC[C@H](NC(=O)OCc1ccccc1)C(=O)Nc1ccccc1 [2u] | 20 ± 1.3% | > 300 µM |  |  |  |
| CC(=O)CC(=O)NCCCC[C@H](NC(=O)OCc1ccccc1)C(=O)Nc1ccccc1 [2v] | 45 ± 6.0% | > 300 µM |  |  |  |
| CCC(=O)CC(=O)NCCCC[C@H](NC(=O)OCc1ccccc1)C(=O)Nc1ccccc1 [2w] | 67 ± 1.2% | 88 ± 3.9 µM |  |  |  |
| CCCC(=O)CC(=O)NCCCC[C@H](NC(=O)OCc1ccccc1)C(=O)Nc1ccccc1 [2x] | 78 ± 5.2% |  |  |  |  |
| O=C(CC(=O)C(F)(F)F)NCCCC[C@H](NC(=O)OCc1ccccc1)C(=O)Nc1ccccc1 [2y] | 7.9 ± 0.92% | > 300 µM |  |  |  |

| Compound | inhibition at 300 μM (%) (SIRT1) | IC50 (SIRT1) | % Activity at 50 μM (sirtuin) | % Activity at 500 μM (sirtuin) | IC50 (sirtuin) |
| --- | --- | --- | --- | --- | --- |
| O=C(CC(=O)c1ccccc1)NCCCC[C@H](NC(=O)OCc1ccccc1)C(=O)Nc1ccccc1 [2z] | 37 ± 7.4% | > 300 µM |  |  |  |
| C#CC1c2cc(O)c(OC)cc2CCN1C (centres unmarked) [7-52] |  |  | 100% | 86% |  |
| COCC#CC1(C)c2cc(O)c(OC)cc2CCN1C (centres unmarked) [7-123] |  |  | 100% | 100% |  |
| COCCCC1c2cc(O)c(OC)cc2CCN1C (centres unmarked) [7-128] |  |  | 99% | 92% |  |
| COC/C=C\C1c2cc(O)c(OC)cc2CCN1C (centres unmarked) [7-129] |  |  | 97% | 94% |  |
| COc1cc2c(cc1O)CN(C)CC2 [7-133] |  |  | 100% | 98% |  |
| COCC#CC1c2cc(O)c(OC)cc2CCN1Cc1ccc(OC)cc1 (centres unmarked) [Compound 14b] |  |  | 92% | 2% |  |
| C[S+]([O-])CCC(C(=O)O)N1C(=O)c2ccccc2C1=O (centres unmarked) [compound 00032] |  |  |  |  | No inhibition |
| CC(C)C(=O)CCN1C(=O)c2ccccc2C1=O [compound 04265] |  |  |  |  | No inhibition |
| O=C(O)CCN1C(=O)c2cc(Cl)c(Cl)cc2C1=O [compound 39008] |  |  |  |  | No inhibition |
| Nc1ccc2c(c1)C(=O)N(CCC(=O)O)C2 [compound 42071] |  |  |  |  | No inhibition |
| O=C(O)CCCN1C(=O)c2ccccc2C1=O [compound 47032] |  |  |  |  | No inhibition |
| O=C(O)CCN1C(=O)c2ccc(-c3nc4ccccc4c(=O)o3)cc2C1=O [compound 47054] |  |  |  |  | No inhibition |
| Nc1cccc(Cc2cccc(N)c2)c1 [compound 56413] |  |  | 100% | 100% |  |
| Oc1ccc(Cc2ccccc2)cc1 [compound 72030] |  |  | 100% | 88% |  |
| O=C1c2ccccc2C(=O)N1CCBr [compound 91032] |  |  |  |  | No inhibition |
| OC(c1ccccc1)c1ccc(C(F)(F)F)cc1 (centres unmarked) [compound 97211] |  |  | 100% | 81% |  |
| Cc1cc(Cc2cc(C)c(O)c(C)c2)cc(C)c1O [compound 97252] |  |  | 89% | 43% |  |
| Cc1cccc(OCC(=O)Oc2ccc3c(C)cc(=O)oc3c2)c1 [compound 5140108] |  |  | 90% | 13% |  |
| Cc1cc(=O)oc2cc(OC(=O)COc3ccccc3)ccc12 [compound 5237467] |  |  | 91% | 45% |  |
| Cc1cc(=O)oc2cc(OC(=O)CCCOc3ccc(Cl)cc3Cl)ccc12 [compound 5366302] |  |  | 90% | 68% |  |
| CCc1ccc(OCCCC(=O)Oc2ccc3c(C)cc(=O)oc3c2)cc1 [compound 6802623] |  |  | 86% | 53% |  |
| Cc1ccc(OCCCC(=O)Oc2ccc3c(C)cc(=O)oc3c2)cc1 [compound 6836332] |  |  | 99% | 57% |  |
| COc1ccc(OCCCC(=O)Oc2ccc3c(C)cc(=O)oc3c2)cc1 [compound 6959933] |  |  | 93% | 35% |  |
| Cc1ccc(OCCCC(=O)Oc2ccc3c(C)cc(=O)oc3c2)c(C)c1 [compound 7988362] |  |  | 90% | 51% |  |
